Patent US5859067A, “Use of natural products and related synthetic compounds for the treatment of cardiovascular disease” (priority 1993, dated 1999)
Several values for one entry are separate records, joined by “and”; a condition that tells them apart may be missing. Equal values may be shown once. Read-outs that look alike come from different tables or passages of the source.

Experiments:
[1] = tested on: brine shrimp (Artemia salina Leach); assay: Brine shrimp toxicity bioassay; type: in vivo; details: for LC50: read-out: LC50 brine shrimp
Description: There are many applications of the assay including analysis of toxic substances, anaesthetics, morphine-like substances and cocarcinogenicity of phorbol esters.
6 (K Hostettman, ed.), Academ Press, London, 1-32. DMSO solutions of the substances to be tested were added directly to the vials containing the brine shrimp. As the concentration of DMSO that we wished to use was higher than the recommended 1% v/v testing of the toxicity of the DMSO was therefore necessary.
Brine shrimp toxicity was assayed, except for some minor modifications, according to the method of McLaughlin et al as reported in Brine Shrimp: A convenient general bioassay for active plant constituents, B N Meyer, N R Ferrigni, J E Putman, L B Jacobsen, D E Nhols and J L McLaughlin. […] J L McLaughlin. […] 6 (K Hostettman, ed.), Academ Press, London, 1-32. Ten shrimp were added transferred to each of the vials and the volume adjusted to 4.9 mL. Each dose was performed in triplicate, including the control. In quick succession, the appropriate volume of additional DMSO for each dose, required to achieve a final concentration of 2%, was added before the appropriate volume of test solution. The vials were gently mixed and the time noted. After 24 hours, the number of survivors were counted and % mortality was determined.
The LC50 values were expressed in both μM and μg/mL.

[2] = target: T1, human erythrocyte plasma membrane Ca^2+ -ATPase (Homo sapiens, UniProt P23634); assay: Ca^2+ -ATPase assay (erythrocyte membranes; Table 1); type: biochemical; details: for inhibition at 100 µM / inhibition at 50 µM: read-out: INHIBITION OF Ca^2+ -ATPase PERCENT (%)
T1 construct: Calmodulin-depleted erythrocyte membranes were prepared by continuous filtration through a hollow fibre; tissue New South Wales Red Cross Transfusion Service, Sydney; host or cells: human packed red blood cells (calmodulin-depleted erythrocyte membranes)
T1 sequence (P23634 1-1205 isoform P23634-6): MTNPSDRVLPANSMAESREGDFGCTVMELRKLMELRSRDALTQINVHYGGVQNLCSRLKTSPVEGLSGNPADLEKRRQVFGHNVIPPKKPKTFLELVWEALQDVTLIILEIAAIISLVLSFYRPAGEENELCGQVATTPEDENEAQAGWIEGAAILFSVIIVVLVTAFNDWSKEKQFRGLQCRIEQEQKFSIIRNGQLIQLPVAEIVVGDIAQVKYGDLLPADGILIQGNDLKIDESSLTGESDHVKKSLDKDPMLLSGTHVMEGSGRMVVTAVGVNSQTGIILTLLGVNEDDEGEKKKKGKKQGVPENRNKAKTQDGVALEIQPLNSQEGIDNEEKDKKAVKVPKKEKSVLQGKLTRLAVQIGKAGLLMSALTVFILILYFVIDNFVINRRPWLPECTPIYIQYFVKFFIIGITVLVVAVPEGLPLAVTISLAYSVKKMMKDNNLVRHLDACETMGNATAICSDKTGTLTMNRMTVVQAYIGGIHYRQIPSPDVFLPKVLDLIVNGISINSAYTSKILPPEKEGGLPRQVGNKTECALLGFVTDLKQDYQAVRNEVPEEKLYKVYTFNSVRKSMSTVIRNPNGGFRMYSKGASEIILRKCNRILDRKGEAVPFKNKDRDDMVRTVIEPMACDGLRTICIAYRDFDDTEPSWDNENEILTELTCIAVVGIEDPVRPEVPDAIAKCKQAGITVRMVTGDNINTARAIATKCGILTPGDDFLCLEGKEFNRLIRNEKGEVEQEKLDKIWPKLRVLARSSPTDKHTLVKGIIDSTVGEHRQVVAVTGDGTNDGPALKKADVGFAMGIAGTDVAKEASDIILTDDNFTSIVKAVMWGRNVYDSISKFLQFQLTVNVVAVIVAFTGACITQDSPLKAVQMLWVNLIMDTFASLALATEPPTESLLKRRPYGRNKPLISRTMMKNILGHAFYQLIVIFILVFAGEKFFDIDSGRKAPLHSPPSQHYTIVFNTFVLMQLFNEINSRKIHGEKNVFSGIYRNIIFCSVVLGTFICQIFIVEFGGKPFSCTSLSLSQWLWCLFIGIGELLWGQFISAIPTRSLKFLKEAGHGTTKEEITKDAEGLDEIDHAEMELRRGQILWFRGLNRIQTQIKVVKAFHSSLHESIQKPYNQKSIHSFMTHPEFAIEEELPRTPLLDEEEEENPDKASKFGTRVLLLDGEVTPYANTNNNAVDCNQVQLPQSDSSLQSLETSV
T1 sequence (P35613 140-385 partner limits assumed): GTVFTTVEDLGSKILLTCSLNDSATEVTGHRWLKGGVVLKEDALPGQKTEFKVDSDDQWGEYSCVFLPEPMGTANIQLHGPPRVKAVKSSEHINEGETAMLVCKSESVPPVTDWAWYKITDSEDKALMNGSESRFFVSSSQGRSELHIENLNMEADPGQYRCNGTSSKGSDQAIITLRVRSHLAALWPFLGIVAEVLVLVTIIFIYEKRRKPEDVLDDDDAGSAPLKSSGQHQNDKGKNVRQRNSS
Description: Natural and synthetic compounds of formula (I) were tested for their ability to influence human erythrocyte plasma membrane Ca^2+ -ATPase.
Packed cells were obtained from the New South Wales Red Cross Transfusion Service, Sydney. The whole preparation was carried out at 4° C. 1 unit of packed red cells was washed 3 times with isotonic buffer, containing 130 mM KCl, 20 mM Tris-HCl (pH 7.4), and the cells were collected by centrifugation at 4,000 RPM. The cells were haemolysed by the buffer containing 1 mM EDTA, 10 mM Tris-Hcl (pH 7.4), 0.5 mM PMSF (phenylmethyl sulfonyl fluoride). The haemolyzate mixture was passed through the hollow fibre system until the membrane appeared white, and then washed with 10 mM potassium Hepes (pH 7.4). The membranes were collected by centrifugation at 10,000 RPM for 20 min, the membranes were resuspended in storage buffer containing 130 mM KCl, 2 mM dithiothreitol, 0.5 mM MgCl2, 20 mM potassium-Hepes (pH 7.5). The membranes with protein concentration of 1.5-5.4 mg/ml were stored at -80° C. until required.
Erythrocyte membranes (0.071-0.098 mg/ml) were incubated at 37° C. for one hour in a total volume of 0.4 ml of 65 mM KCl, 20 mM potassium-Hepes, 5 mM MgCl2, 50 μM CaCl2, 0.1 μm calmodulin, 0.1 mM EGTA. The reaction was started by adding 2 mM ATP(pH 7.4). […] The activity of the Mg^2+ -ATPase (assayed in the absence of added CaCl2) was subtracted from the total activity assayed in the presence of Ca^2+. […] A concentrated solution of the test substances was added to the reaction medium before adding ATP.

[3] = read-out: INHIBITION OF Ca^2+ -ATPase IC50
[4] = Artemia salina, 24 h, read-out: % Deaths

Row | inhibition at 100 µM ([2]; at 100 μM) | IC50 [2, 3] | Compound | LC50 ([1]; Artemia salina, 24 hours) | further results
1 |  |  | Cc1c(O)cc(CCCCCCCCc2cc(O)c(C)c(O)c2)cc1O [1,8-bis(3,5-dihydroxy-4-methylphenyl)octane] | > 25 µM and > 9 µg/mL | 
2 |  |  | Cc1c(O)cc(CCCCCCCCCCc2cc(O)c(C)c(O)c2)cc1O [1,10-bis(3,5-dihydroxy-4-methylphenyl)decane] | > 25 µM and > 9.7 µg/mL | 
3 | 52% | 93 µM | Oc1ccc(CCCCCCCCCCc2ccc(O)cc2)cc1 [1,10-bis(4-hydroxyphenyl)decane] | 810 nM and 0.26 µg/mL | 
4 |  |  | Cc1c(O)cc(CCCCCCCCCCCCc2cc(O)c(C)c(O)c2)cc1O [1,12-bis(3,5-dihydroxy-4-methylphenyl)dodecane] | > 25 µM and > 10 µg/mL | 
5 |  |  | Oc1ccc(CCCCCCCCCCCCc2ccc(O)cc2)cc1 [1,12-bis(4-hydroxyphenyl)dodecane] | 3.8 µM and 1.4 µg/mL | 
6 | 84% | 28 µM | Oc1ccccc1CCCCCCCCCCCCCCc1ccccc1O [1,14-bis(2-hydroxyphenyl)tetradecane] | 1.9 µM and 0.72 µg/mL | 
7 | 5% | 280 µM | Oc1ccc(CCCCCCCCCCCCCCc2ccc(O)cc2)cc1 [1,14-bis(4-hydroxyphenyl)tetradecane] | 7.9 µM and 3.7 µg/mL | 
8 |  |  | Cc1cc(CCCCCCCCCCc2cccc(C)c2O)ccc1O [1-(2-hydroxy-3-methylphenyl)-10-(4-hydroxy-3-methylphenyl)decane] | 2.2 µM and 0.78 µg/mL | 
9 |  | 12 µM | Oc1ccc(CCCCCCCCCCc2ccccc2O)cc1 [1-(2-hydroxyphenyl)-10-(4-hydroxyphenyl)decane] | 350 nM and 0.11 µg/mL | inhibition at 50 µM [2]: 100%
10 | 99% | 18.8 µM | Oc1ccc(CCCCCCCCCCCCc2ccccc2O)cc1 [1-(2-hydroxyphenyl)-12-(4-hydroxyphenyl)dodecane] | 54 nM and 0.019 µg/mL | 
11 | 60% | 81 µM | Oc1ccc(CCCCCCCCCCCCCCc2ccccc2O)cc1 [1-(2-hydroxyphenyl)-14-(4-hydroxyphenyl)tetradecane] | 3.7 µM and 1.4 µg/mL | 
12 |  |  | Oc1ccccc1C1CCCCC1 [2-cyclohexylphenol] | > 25 µM and > 4.4 µg/mL | IC50 [2]: 186 µM; inhibition at 100 µM [2]: 28%
13 | 85% | 42 µM | CCCCCCCCCCc1ccccc1O [2-decylphenol] | 680 nM and 0.16 µg/mL | 
14 |  |  | CCCCCCCCCc1cc(O)c(C)c(O)c1 [2-methyl-5-nonyl-resorcinol] | 8.3 µM and 2.1 µg/mL | 
15 | 32% | > 100 µM | CCCCCCCCC(=O)c1ccccc1O [2-nonanoylphenol] | 630 nM and 0.15 µg/mL | 
16 |  |  | CCCCCCCCc1ccccc1O [2-octylphenol] |  | LC50 ([1]; Artemia salina, 24 h): 1.5 µM and 0.31 µg/mL; IC50 [2]: 32 µM; inhibition at 100 µM [2]: 100%
17 | 76% | 84 µM | CC(C)(C)c1cc(O)c(O)c(C(C)(C)C)c1 [3,5-di-tert-butyl-catechol, reference compound] |  | 

Row | inhibition at 100 µM ([2]; at 100 μM) | IC50 [2, 3] | Compound | LC50 ([1]; Artemia salina, 24 hours) | further results
18 |  |  | CCCCCCCCCc1cccc(O)c1 [3-nonylphenol] |  | LC50 ([1]; Artemia salina, 24 h): 320 nM and 0.07 µg/mL; IC50 [2]: 64 µM; inhibition at 100 µM [2]: 69%
19 |  |  | CCCCCCCCCCc1ccc(O)cc1 [4-decylphenol] |  | LC50 ([1]; Artemia salina, 24 h): 270 nM and 0.064 µg/mL; IC50 [2]: 170 µM; inhibition at 100 µM [2]: 24%
20 | 17% | 259 µM | CCCCCCc1ccc(O)cc1O [4-hexylresorcinol, reference compound] | 62 µM and 12 µg/mL | 
21 |  |  | CCCCCCCCC(=O)c1ccc(O)cc1 [4-nonanoylphenol] | 100 nM and 0.024 µg/mL | LC50 ([1]; 24 hours): 0.1 µM
22 |  |  | CCCCCCCCCc1ccc(O)cc1 [4-nonylphenol] |  | LC50 ([1]; Artemia salina, 24 h): 400 nM and 0.088 µg/mL; IC50 [2]: 114 µM; inhibition at 100 µM [2]: 22%
23 |  |  | CC(C)(C)CC(C)(C)c1ccc(O)cc1 [4-tert-octylphenol, reference compound] |  | IC50 [2]: 60 µM; inhibition at 100 µM [2]: 94%
24 | 30% | 135 µM | CCCCCCCCCCc1cc(O)cc(O)c1 [5-decylresorcinol] | 54 µM and 15 µg/mL | 
25 |  |  | CCCCCCCCCCCCCCCCCc1cc(O)cc(O)c1 [5-heptadecylresorcinol] | > 100 µM and > 18 µg/mL | 
26 | 44% | 108 µM | CCCCCCCCCc1cc(O)cc(O)c1 [5-nonylresorcinol] | > 100 µM and > 18 µg/mL | 
27 |  |  | CCCCCc1cc(O)cc(O)c1 [5-pentylresorcinol (olivetol), 5-pentylresorcinol, reference compound] |  | LC50 ([1]; Artemia salina, 24 h): > 100 µM and > 18 µg/mL
28 |  |  | CCCCCCCCCCCCc1cc2c(C)cc(=O)oc2cc1O [6-dodecyl-7-hydroxy-4-methylcoumarin] | > 25 µM and > 8.1 µg/mL | 
29 | 69% | 66 µM | Cc1cc(C(C)(C)C)c(O)c(C(C)(C)C)c1 [BHT, 2,6-di-tert-butyl-4-methylphenol, reference compound] |  | 
30 |  |  | C[S+](C)[O-] [DMSO, dimethyl sulfoxide] |  | toxicity to brine shrimp (in words) ([1]; 24 hours): No toxicity towards brine shrimp was observed; mortality at 1 % [1, 4]: 0%; mortality at 2 % [1, 4]: 0%; mortality at 3 % [1, 4]: 0%; mortality at 4 % [1, 4]: 0%; mortality at 5 % [1, 4]: 9%; mortality at 7 % [1, 4]: 12%; mortality at 9 % [1, 4]: 18%; mortality at 11 % [1, 4]: 57%; mortality at 13 % [1, 4]: 96%; mortality at 15 % [1, 4]: 100%; mortality at 20 % [1, 4]: 100%; mortality at 25 % [1, 4]: 100%; LC50 brine shrimp, solvent ([1]; solvent): 11 % v/v
31 | 35% | > 100 µM | Oc1cc(O)cc(CCCCCCCCCCCCCCc2cc(O)cc(O)c2)c1 [bisnorstriatol, 1,14-bis(3,5-dihydroxyphenyl)tetradecane] | 40 µM and 17 µg/mL | toxicity to brine shrimp (in words) ([1]; 24 hours): relatively low toxicity; inhibition at 500 µM ([2]; at 500 μM): 69.1%
32 | 60% | 85 µM | CCCCCCCCCCc1cc(O)cc(O)c1C(=O)OCC [ethyl 2,4-dihydroxy-6-decylbenzoate] | 2.3 µM and 0.75 µg/mL | 
33 |  | 17 µM | Cc1c(O)cc(CCCCCCCCCCCCCCc2cc(O)cc(O)c2)cc1O [grebustol-A, 1-(3,5-dihydroxy-phenyl)-14-(3,5-dihydroxy-4-methylphenyl)tetradecane] |  | inhibition at 50 µM [2]: 100%
34 | 90% | 50 µM | Oc1cc(O)cc(CCCCC/C=C\CCCCCCCc2cc(O)cc(O)c2)c1 [grebustol-B, 1,14-bis(3,5-dihydroxyphenyl)tetradec-Z-6-ene] |  | Ca^2+ -ATPase inhibitory activity (in words) [2]: weaker

Row | Compound | inhibition at 100 µM ([2]; at 100 μM) | IC50 [2, 3] | LC50 ([1]; Artemia salina, 24 hours) | further results
35 | Cc1cc(Cc2cc(C)cc(C(C)(C)C)c2O)c(O)c(C(C)(C)C)c1 [2,2'-methylenebis(4-methyl-6-tert-butylphenol), reference compound] |  | 45 µM |  | inhibition at 100 µM [2]: 74%
36 | CC(C)(C)c1cc(C(C)(C)C)c(O)c(C(C)(C)C)c1 [2,4,6-tri-tert-butylphenol, reference compound] | 79% |  |  | IC50 [2]: 15 µM
37 | Oc1ccc(C2CCCCC2)cc1 [4-cyclohexylphenol] | 16% |  |  | LC50 ([1]; Artemia salina, 24 h): > 25 µM and > 4.4 µg/mL; IC50 [2]: 271 µM
38 | nonylphenol [nonylphenol (commercial), reference compound] |  | 27.5 µM |  | INHIBITION OF Ca^2+ -ATPase PERCENT (%) ([2]; at 100 μM): 100%
